Results: patent US5100907A, “Hydantoin esters” (Lonza, Inc., priority 1990, dated 1992)
Read-outs that look alike come from different tables or passages of the source.

Key:
Assay type in all cases: physicochemical
[1] = Total available formaldehyde (TF) and free formaldehyde (FF) levels of esters (I); conditions: for Calculated TF / Determined FF / Ratio FF/TF: 1% active concentration in water; for FF (free formaldehyde) / TF (total available formaldehyde): neat ester, Table 3; for FF/TF ratio: water
From the text: Thus, whether the formaldehyde content is chemically bonded to the hydantoin moiety or is free formaldehyde (FF) in solution, e.g., in water as formaldehyde or methylene glycol [CH2 (OH)2 ], it remains available for biocidal action. Due to this direct relation, the weight percent TF in a given preparation of the ester (I), e.g. a cosmetic formulation, can be predicted accurately, regardless of the level of dilution.

[2] = HLB determination (weighted average method)
From the text: Hydrophilic-Lipophilic Balance or HLB is a means of associating the hydrophilic and lipophilic characteristics between two surfactants. A "weighted average" method was used to determine the HLB of the esters (I), and by comparison of the precursor ester (Ia), in which two emulsifiers of known HLB values along with the test ester were incorporated in a mixture of mineral oil and water. Evaluation and HLB determination of each of a series of prepared emulsion samples were effected by visual inspection.
The HLB of the mixture "m" is calculated from the sum of the HLB contributions of each surfactant, "a", "b", "c", per Equation 2 which describes a system of oil, water, and three surfactants.
Given that [HLB]m, [HLB]a, and [HLB]b, are known, and the ideal amount of "a", "b", and "c" to prepare a perfect emulsion has been determined, then by rearrangement of Eq. 2, the HLB of "c" can be calculated by Equation 3.
To obtain the HLB of the test ester as surfactant "c", a series of formulations was prepared in which the known surfactant sorbitan monostearate (SMS) as "a" and the known surfactant POE 20 sorbitan monostearate (POE 20 SMS) as "b" were varied in amount (wt. %) relative to each other at a constant amount (1 wt. %) of "c", until an optimum emulsion was obtained. Different combinations of "a" and "b" were used to vary the HLB of "c", for emulsifying a 40:56 (wt. %) mixture of paraffin oil and distilled water (totaling 96 wt. %).
To prepare the emulsions, surfactants "a", "b", and "c", and the paraffin oil were combined in a 150 ml beaker and heated slowly with agitation to 70°-80° C. The value of "X" in each formulation was predetermined by rearranging Eq. 3 to solve for X, and then inserting into the equation various [HLB]c values for the test ester (i.e., 2, 3, 4, 5, 6 . . . ). The [HLB]c values chosen reflected a range that would likely contain the actual HLB of the test ester. Hot distilled water (70°-80° C.) was then slowly added with agitation. The total weight of all these reagents was 100 grams. The resulting emulsion was allowed to cool, with continued agitation, until the temperature dropped below 30° C.
A series of emulsions for each test was prepared, one at a time, and then examined as a set. Each sample within the series was evaluated and graded according to the quality of the emulsion by visual examination of droplet size.

[3] = Dispersion stability tests
Protocol: The dispersion stability tests were performed on the esters (I) to determine the extent each was able to disperse itself in an aqueous medium.
The dispersions were prepared by homogenizing a mixture of the test ester and water, after which repeated examination of the sample was effected for a period of 55 days. This test method is fully indicative of the dispersibility of these esters (I).
The dispersion tests were performed with the esters at 0.5% and 5.0% active levels in water, prepared by combining the test ester with distilled water, and homogenizing the mixture for one to three minutes, via a Kika-Werk Ultra-Turrax S D-45 homogenizer. The dispersions were poured into an eight ounce flint jar, capped, and periodically examined over a 55 day period.

[4] = Physical properties of methylolated MHEDMH esters (I): viscosity; conditions: at 25° C.
Emulsion stability tests = conditions: for Classification of Emulsion: 2% ester, 7% myristyl propionate, 91% water
Protocol: Emulsion stability tests were performed on the esters (I), and for comparison on the precursor esters (Ia), to determine the extent to which each stabilized a standardized solution of water and an oil, using a common procedure consisting of homogenizing a mixture containing the test ester (2%), myristyl propionate (7%), and water (91%). While two emulsifiers are normally used to prepare a cosmetic formulation, e.g. one with a high HLB and the other with a low HLB, the test method herein using only one emulsifier, i.e. the test ester, is fully indicative of the emulsifying attributes of these esters.
The tests were performed with emulsions (500 g), prepared by combining the test ester (10.0 g), myristyl propionate (35 g), and distilled water (455 g) in a container and homogenizing the contents for one minute, via a Kika-Werk Ultra-Turrax S D-45 homogenizer. The emulsions were poured into a one pound flint jar, capped, and periodically examined over a 55 day period.

[5] = Surface tension tests (cmc, Gibbs' Free Energy of Micellation); conditions: for ΔG°cmc (Gibbs' Free Energy of Micellation): calculated from cmc by Eq. 1, T=298° K.; for cmc (critical micelle concentration): ester/water solution
Protocol: Surface tension tests were conducted as to the relationship between the fatty acid aliphatic chain length, i.e. number of carbon atoms, in the esters (I), and their performance as surfactants. The length of the hydrophobic chain of a molecule is considered the major contributing factor to the critical micelle concentration (cmc) value of a surfactant. This value is obtained from surface tension measurement data. The lower the cmc, the more readily the material will form micelles.
The Gibbs' Free Energy of Micellation (ΔG°cmc) and the ΔG°cmc per --CH2 -- can be determined if the cmc is known.
The ΔG°cmc is a calculated value obtained by Equation 1.
ΔG°cmc =2.303RT(log cmc-log[water]) (Eq. 1)
The ΔG°cmc per --CH2 -- value is obtained from the slope of the straight line curve formed from a plot of ΔG°cmc versus the number of carbon atoms in the lipophilic chain.
The cmc values were based on surface tension tests conducted with a tensiometer (Cenco-DuNoug Precision Model #70535, direct reading model) to determine the upward surface tension at the liquid-air surface of the test ester/water solution. The methods used to calibrate the tensiometer, calculate the "correction factor" (used to correct for the difference between the apparent and true surface tension), and collect data, were conducted as described in the manual for the instrument. Sodium lauryl sulfate (SLS) and distilled water were used as reference samples.
On completing data collection, plots of the surface tension (dynes) versus -log of the concentration (mols/liter) were prepared, using only the "corrected" surface tension value, obtained by applying the noted "correction factor" in each case. The […] was found by multiplying the "apparent" surface tension by a calculated correction factor.
The critical micelle concentration (cmc) for each sample was determined by locating the point in the curve where the surface tension first begins to level off, per a known procedure.

[6] = Solubilities of esters in typical solvents / appearance of samples in water; conditions: for Solubility in isopropyl alcohol / Solubility in mineral oil / solubility: 25° C.; for solubility: water
[7] = grams, legend per 100 g Solvent

| Compound | Calculated TF [1] [Wt. %] | Determined FF [1] [Wt. %] | FF (free formaldehyde) [1] [Wt. %] | TF (total available formaldehyde) [1] [Wt. %] | Average HLB [2] | HLB Range [2] | dispersion quality, decreasing order of rank [3] | Viscosity [4] | emulsion quality, decreasing order of rank (Emulsion stability tests) | ΔG°cmc (Gibbs' Free Energy of Micellation) [5] [kcal/mol] | cmc (critical micelle concentration) [5] | Ratio FF/TF [1] | Classification of Dispersion ([3]; 0.5% active in water, 3 Days) | Classification of Dispersion ([3]; 0.5% active in water, 13 Days) | Classification of Dispersion ([3]; 0.5% active in water, 55 Days) | Classification of Dispersion ([3]; 5.0% active in water, 3 Days) | Classification of Dispersion ([3]; 5.0% active in water, 13 Days) | Classification of Dispersion ([3]; 5.0% active in water, 55 Days) | Solubility in isopropyl alcohol [6] | Classification of Emulsion (Emulsion stability tests; 2 Hours after preparation) | further results |
| --- | --- | --- | --- | --- | --- | --- | --- | --- | --- | --- | --- | --- | --- | --- | --- | --- | --- | --- | --- | --- | --- |
| 2-(3-hydroxymethyl-5,5-dimethyl-1,3-diazacyclopentane-2,4-dion-1-yl)-ethylester of isostearic acid [Isostearic Methylolated Ester] | 0.062 | 0.0082 | 0.2 | 6.2 | 15.0 | 14-16 | isostearate>oleate>cocoate>laurate>C8/10ester>>stearate>acetate | 957 cts | cocoate, laurate>oleate,isostearate>stearate>C8/10 ester>acetate | -7.13 | 3.0 × 10^-4 mol dm^-3 |  |  |  |  |  |  |  |  |  | surface active properties [5]: particularly favorable surface active properties |
| CC(=O)OCCN1C(=O)N(CO)C(=O)C1(C)C [Acetic Methylolated Ester, 2-(3-hydroxymethyl-5,5-dimethyl-1,3-diazacyclopentane-2,4-dion-1-yl)-ethylester of acetic acid] | 0.123 | 0.0199 | 0.6 | 12.3 | 19.0 | 19-20 | isostearate>oleate>cocoate>laurate>C8/10ester>>stearate>acetate | 4,384 cts | cocoate, laurate>oleate,isostearate>stearate>C8/10 ester>acetate | -3.896 | 7.24 × 10^-3 mol dm^-3 | 0.162 | Dissolved | Dissolved | Dissolved | Dissolved | Dissolved | Dissolved | S (>10 g/100 g Solvent) | 2-Phase | FF/TF ratio ([1]; concentration 0.1%): 0.25; FF/TF ratio ([1]; concentration 1%): 0.20; FF/TF ratio ([1]; concentration levels >5%): about 0.15%; Average HLB ([2]; listed as acetate (I)): 19; Classification of Dispersion ([3]; 0.5% active in water, 2 Hours): Dissolved; Classification of Dispersion ([3]; 5.0% active in water, 2 Hours): Dissolved; Solubility in mineral oil [6, 7]: 3 g; solubility [6]: > 100 mg/mL; ability to stabilize emulsions (Emulsion stability tests): generally unable to stabilize an emulsion for more than two hours; Classification of Emulsion (Emulsion stability tests; 7 Days after preparation): 2-Phase; Classification of Emulsion (Emulsion stability tests; 22 Days after preparation): 2-Phase; Classification of Emulsion (Emulsion stability tests; 55 Days after preparation): 2-Phase |
| CCCCCCCCCCCCCCCCCC(=O)OCCN1C(=O)N(CO)C(=O)C1(C)C [Stearic Methylolated Ester, 2-(3-hydroxymethyl-5,5-dimethyl-1,3-diazacyclopentane-2,4-dion-1-yl)-ethylester of stearic acid] | 0.064 | 0.0066 | 0.2 | 6.4 | 7.0 | 6-8 | isostearate>oleate>cocoate>laurate>C8/10ester>>stearate>acetate |  | cocoate, laurate>oleate,isostearate>stearate>C8/10 ester>acetate | -5.277 | 7.0 × 10^-3 mol dm^-3 | 0.103 | 2-Phase | 2-Phase | 2-Phase | 2-Phase | 2-Phase | 2-Phase | S (>10 g/100 g Solvent) | Good/OK | Average HLB ([2]; listed as stearate (I)): 7; water solubility relative to the other esters [6]: far less soluble in water than the other such esters; Solubility in mineral oil [6]: S (>10 g/100 g Solvent); solubility [6, 7]: < 10 mg/mL |
